Measurements as given in PubChem BioAssay (NCI).
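Grown in 96-well plates, cells were treated for 48 hours with each compound at five concentrations. Insufficient inhibition: endpoint recorded as highest concentration tested. GI50 is the concentration that inhibits growth by half. At the TGI there is no net growth.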

Columns and labels:
Assay in all cases: DTP human tumour cell line panel, 48 h
MDA-MB-435 = system: MDA-MB-435
K-562 leukemia = system: K-562 leukemia
UO-31 renal = system: UO-31 renal
SK-MEL-5 melanoma = system: SK-MEL-5 melanoma
SN12C renal = system: SN12C renal
MALME-3M melanoma = system: MALME-3M melanoma
TK-10 renal = system: TK-10 renal
LOX IMVI melanoma = system: LOX IMVI melanoma
NCI-H460 lung = system: NCI-H460 lung
RPMI-8226 leukemia = system: RPMI-8226 leukemia

Row | SMILES | GI50 (MDA-MB-435) [µM] | TGI (MDA-MB-435) [µM] | GI50 (K-562 leukemia) [µM] | TGI (K-562 leukemia) [µM] | GI50 (UO-31 renal) [µM] | TGI (UO-31 renal) [µM] | GI50 (SK-MEL-5 melanoma) [µM] | TGI (SK-MEL-5 melanoma) [µM] | GI50 (SN12C renal) [µM] | TGI (SN12C renal) [µM] | GI50 (MALME-3M melanoma) [µM] | TGI (MALME-3M melanoma) [µM] | GI50 (TK-10 renal) [µM] | TGI (TK-10 renal) [µM] | GI50 (LOX IMVI melanoma) [µM] | TGI (LOX IMVI melanoma) [µM] | GI50 (NCI-H460 lung) [µM] | TGI (NCI-H460 lung) [µM] | GI50 (RPMI-8226 leukemia) [µM] | TGI (RPMI-8226 leukemia) [µM]
1 | COc1cc(F)c(F)cc1C(=O)c1cnc(NC2CCN(S(C)(=O)=O)CC2)nc1N | 3.55 | > 25 | 7.29 | > 25 | 4.75 | > 19.8 | 2.07 | > 14.4 | 4.49 | > 25 | 2.78 | 24.2 | 2.92 | 19.3 | 3.16 | > 20.7 | 1.16 | 24.3 | 3.66 | > 16.2
2 | CC1=C(CO)C(=O)O[C@@H]([C@@H](C)[C@H]2CC[C@H]3[C@@H]4C[C@H]5O[C@]56[C@@H](O)C=CC(=O)[C@]6(C)[C@H]4CC[C@]23C)C1 | 0.252 | 0.976 | – | 2.5 | – | 1.31 | – | 2.79 | 0.463 | 1.78 | – | 0.826 | – | 1.99 | 0.172 | 0.547 | – | 5.11 | – | 37.5
3 | O=C(O)COc1ccc(OCC(=O)O)cc1 | 3.36 | 16.4 | 2.49 | 16.6 | 5.4 | 27.5 | 0.362 | 2.31 | 0.275 | 18 | 0.571 | 10.5 | – | – | 0.276 | 2.34 | 0.0609 | 1.51 | 0.343 | 6.76
4 | Cc1nn(C)c2ncnc(N/N=C/c3cccc(O)c3O)c12 | 0.609 | > 100 | 0.387 | > 100 | 0.251 | 2.19 | 0.433 | 2.31 | 0.481 | > 100 | 0.52 | 4.7 | 2.64 | > 100 | 0.238 | 4.05 | 0.431 | > 39.7 | 0.526 | > 100
5 | COc1cc(Cl)c(CC(=O)c2c[nH]c3ccccc23)cc1OC | – | > 100 | – | > 100 | – | > 43.3 | – | > 100 | – | > 100 | – | > 100 | – | > 74 | – | > 100 | – | > 100 | – | > 100
6 | CC(C)(C)c1ccc(C2CC(=O)C3=C(C2)Nc2ccccc2N(C(=O)c2ccccc2Cl)C3c2ccc(F)cc2)cc1 (stereo unspecified) | > 100 | > 100 | – | – | > 100 | > 100 | > 100 | > 100 | > 100 | > 100 | > 100 | > 100 | – | – | > 100 | > 100 | > 100 | > 100 | 4.14 | > 100
7 | CCOC(=O)c1c(-c2ccccc2)[n+](=O)c2cc(F)c(F)cc2n1[O-] | 1.93 | 3.6 | 0.702 | > 100 | – | – | 1.53 | 3.52 | – | – | – | – | 16.6 | 32 | 0.157 | 0.298 | – | – | 1.02 | 3.98
8 | O=c1[nH]c2ccccc2c(O)c1/C=N/C(=S)NC1CCCCC1 | – | > 100 | – | > 100 | – | > 100 | – | > 100 | – | > 100 | – | – | – | > 100 | – | > 100 | – | > 100 | – | > 100
9 | COc1cc(OC)c2c(=O)cc(-c3ccccc3OCc3ccccc3)oc2c1OC | 2.68 | 7.01 | > 100 | > 100 | > 100 | > 100 | 1.84 | 4.33 | 20.4 | > 100 | – | – | 6.56 | 34.9 | 10.2 | > 100 | 5.42 | > 100 | 2.83 | > 100
10 | COc1ccc(Nc2ncnc3ccc(-c4cncc(NS(C)(=O)=O)c4)cc23)cc1Cl | 3.19 | 15.3 | 3.2 | 18.7 | 3.04 | 22.5 | 1.61 | 3.21 | 3.09 | 18.7 | 1.55 | 11.2 | – | – | 1.5 | 4.28 | 4.11 | 17 | 2.11 | 4.9
11 | Cc1cc(=O)[nH]c(N/N=C/c2ccccc2O)n1 | 18.7 | > 100 | 5.82 | > 100 | 5.3 | > 100 | 4.19 | 19.1 | 18.7 | > 100 | 4.49 | > 100 | – | – | 8.02 | > 100 | 4.72 | > 100 | 5.61 | > 100
12 | CN(C)CCN1C(=O)c2cccc3c(/C=C/CN4C(=O)c5cccc6cccc(c56)C4=O)ccc(c23)C1=O | > 100 | > 100 | – | – | 17.4 | 48.2 | > 100 | > 100 | 21.9 | 70.5 | 4.06 | 30.5 | 34.7 | 82.8 | 14.5 | 27.7 | > 100 | > 100 | > 100 | > 100
13 | CC(C)[P+](c1ccccc1)(c1ccccc1)c1ccccc1 | 2.65 | 25.3 | 2.4 | > 100 | > 100 | > 100 | 2.22 | 7.9 | 11.5 | > 100 | – | – | – | – | 9.94 | > 100 | 6.92 | > 100 | 1.72 | 23.6
14 | CC(C)C1(NC(=O)C2CC3c4cccc5[nH]cc(c45)CC3N(C)C2)OC2(O)C3CCCN3C(=O)C(Cc3ccccc3)N2C1=O (stereo unspecified) | – | > 100 | – | – | – | > 100 | – | > 100 | – | > 100 | – | – | – | > 100 | – | 47.7 | – | > 100 | – | 39.8
15 | COC(=O)c1onc(C2OC(C)(C)OC2C(O)COC(c2ccccc2)(c2ccccc2)c2ccccc2)c1C(=O)OC (stereo unspecified) | – | > 100 | – | > 100 | – | > 100 | – | > 100 | – | > 100 | – | > 100 | – | > 100 | – | – | – | – | – | > 100
16 | CCc1ccc2oc(=O)ccc2c1 | – | > 100 | – | > 100 | – | > 100 | – | > 100 | – | > 100 | – | > 100 | – | – | – | > 100 | – | > 100 | – | > 100
